Test results: patent US20260166061A1, “COMPOUND, RACEMATE OF SAID COMPOUND, SALT OF SAID COMPOUND OR SAID RACEMATE, COMPOSITION, ANTI-INFLAMMATORY AGENT, THERAPEUTIC AGENT FOR DEMENTIA, AND THERAPEUTIC AGENT FOR RETT SYNDROME” (INSTITUTE OF RHEOLOGICAL FUNCTION OF FOOD CO., LTD., priority 2021, published 2026)

Legend:
p65 (NFkB) in BV2 cells = assay: LPS-induced nuclear p65 expression in BV2 cells (Western blotting); type: cell-based, mice; conditions: 5 μg/mL, 16 hours pre-culture, LPS (1 g/mL) 6 hours, 20 μg nuclear protein, n=2, FIG. 1
Experimental: (§1) Under conditions where KIT-2 or KIT-13 was present (5 μg/mL), or where neither KIT-2 nor KIT-13 was present, BV2 cells, which are microglial cells in mice, were cultured for 16 hours in DMEM medium supplemented with 2% fetal bovine serum (FBS). Thereafter, treatment with LPS ([…]) was carried out for 6 hours. Subsequently, nuclear protein was extracted from the cells, and p65 was detected by the Western blotting method. The antibody used for the detection was an anti-p65 NFkB antibody (Ref no. 51-0500, manufactured by Invitrogen).

IL-1β in BV2 cells = assay: LPS-induced IL-1β protein in BV2 cell culture supernatant (ELISA); type: cell-based, mice; conditions: 5 μg/mL, 16 hours pre-culture, LPS (1 g/mL) 6 hours, n=4, FIG. 2
Experimental: as §1
In addition, 20 μL of the cell culture supernatant after the LPS treatment was subjected to detection of the inflammatory cytokine IL-1ß by the ELISA method using a mouse IL-1β ELISA kit (manufactured by R&D Systems; Catalog No. DY401-05).

IL-1β gene in BV2 cells = assay: LPS-induced IL-1β gene expression in BV2 cells (PCR); type: cell-based, mice; conditions: 5 μg/mL, 16 hours pre-culture, LPS (1 μg/mL) 2 hours, vs. no addition, β-actin internal standard, FIG. 3
Experimental: Under conditions where sPIs or KIT-13 was present (5 μg/mL), or where neither sPIs nor KIT-13 was present, BV2 cells were cultured for 16 hours in DMEM medium supplemented with 2% fetal bovine serum (FBS). Thereafter, treatment with LPS (1 μg/mL) was carried out for 2 hours. Subsequently, cellular RNA was extracted using the TRIzol (trademark) reagent, and cDNA was prepared from the RNA using a PrimeScript (trademark) 1st strand cDNA Synthesis Kit (manufactured by Takara; 6110). Using TaKaRa Taq (trademark) (manufactured by Takara; R110A), the expression levels of the IL-1β gene and, as an internal standard, the β-actin gene were quantified by polymerase chain reaction (PCR).
The base sequences of the forward primer and the reverse primer for the IL-1ß gene are shown in SEQ ID NOs: 1 and 2, respectively. The base sequences of the forward primer and the reverse primer for the β-actin gene are shown in SEQ ID NOs: 3 and 4, respectively.

MeCP2-deficient mice [1] = assay: Evaluation of lifetime using RTT model mice; type: in vivo; conditions: male MeCP2-deficient mice, 20 ng/g body weight, drinking water twice a week
Experimental: For the test, 4-week-old male MeCP2-deficient mice were used. The MeCP2-deficient mice were divided into the following two groups: a KIT-13 administration group (KO-KIT-13, n=14) and a control group (KO, n=28). The body weight of each mouse was measured in advance. For the KIT-13 administration group, KIT-13 was suspended in water by ultrasonication, and administered twice a week by drinking-water administration such that 20 ng/g body weight of KIT-13 was taken. On the other hand, in the control group, only water was given in the same manner.

MeCP2-deficient mice [2] = assay: RTT-like scoring using RTT model mice; type: in vivo; conditions: male MeCP2-deficient mice, 20 ng/g body weight, drinking water, scored weekly from 5 weeks old, FIG. 5
Experimental: (§2) RTT-like symptoms in MeCP2-deficient mice to which KIT-13 was administered were evaluated by RTT-like scoring. For the test, 4-week-old male MeCP2-deficient mice were used. The MeCP2-deficient mice were divided into the following two groups: a KIT-13 administration group (KO-KIT-13, n=14) and a control group (KO, n=15). In the KIT-13 administration group, KIT-13 was administered at 20 ng/g body weight by drinking-water administration in the same manner as in Test Example 3. In the control group, only water was given in the same manner.
The RTT-like scoring was carried out once a week from 5 weeks old, for the following items 1 to 6.
Each mouse was observed after gently placing the mouse on a platform. • 0 points: Same as the wild type. • 1 point: Lower mobility compared to the wild type. (The period of freezing after the first placement on the platform is longer, or the period during which the mouse is standing still is longer.) • 2 points: No spontaneous movement after the placement on the platform. The mouse can move in response to mild stimuli or food placed nearby.
• 0 points: Same as the wild type. • 1 point: Due to a severe reduction in the pelvis, the mouse spreads the hindlimbs apart during walking or running, compared to the wild type. Waddling gait.
Staggering gait. • 2 points: More remarkable abnormality. […]

[3] = Evaluation of body weight of MeCP2-deficient mice; type: in vivo; conditions: male MeCP2-deficient mice, 20 ng/g body weight, drinking water
Experimental: as §2, with “MeCP2-deficient” for “RTT-like symptoms in MeCP2-deficient”, “subjected to measurement of the body weight every week, and changes in the body weight were evaluated.” for “evaluated by RTT-like scoring.”, “n=21).” for “n=15).”

[4] = system: c57BL6J mice with LPS-induced memory impairment; assay: Water maze test in LPS-induced memory impairment model mice; type: in vivo; conditions: 10 mg/50 kg/day in drinking water for 30 days plus 7 days LPS (250 mg/kg/day), sixth trial, P<0.01, n=5, FIG. 7
Experimental: The effect of KIT-13 on LPS-induced memory impairment in mice was studied. Eight-week-old male c57BL6J mice (5 individuals per group; n=5) were allowed to drink KIT-13 for 30 days at a dose of 10 mg/50 kg/day, and then LPS treatment (250 mg/kg/day) was carried out for 7 days while the mice were similarly allowed to drink KIT-13. Thereafter, a water maze test was carried out for 2 days (three trials per day).
The time required for the mice to reach an escape platform (arrival time) was as illustrated in FIG. 7. Intergroup comparison was carried out using the ANOVA test and the Bonferroni post-hoc test. […] Thus, KIT-13 is effective for improvement of the brain function (cognitive function).

SMILES: CCCCC/C=C\C/C=C\C/C=C\C/C=C\CCCC(=O)O[C@H](COCCCCCCCCCCCCCCCCCC)COP(=O)(O)OCCN [KIT-13]
- LPS-induced nuclear accumulation of p65 (p65 (NFkB) in BV2 cells): remarkably suppressed
- LPS-induced expression of the inflammatory cytokine IL-1β (protein per 5000 cells) (IL-1β in BV2 cells): remarkably decreased
- expression of the IL-1β gene (IL-1β gene in BV2 cells): significantly suppressed
- survival rate vs control group (MeCP2-deficient mice [1]; FIG. 4): higher survival rate than the control group
- number of days required for the survival rate to decrease to 50% (MeCP2-deficient mice [1]; n=14, control 64.5 days): 90 days
- RTT-like score (MeCP2-deficient mice [2]): reduced the RTT-like score
- toxicity (concluded from body weight) [3]: non-toxic
- changes in the body weight vs control group ([3]; weekly measurement, t-test, FIG. 6): No statistical difference
- memory (arrival time at escape platform) vs LPS group [4]: showed improvement in the memory
